Source: ChEMBL document CHEMBL1129260, “Evaluation of the stability and animal biodistribution of gadolinium (III) benzylamine-derivatized diethylenetriaminepentaacetic acid” (J Med Chem, 1996)

Experiment: Gadolinium(III) stability constants (log K value) for the compound polyamino carboxylate derivative

Row | Structure (SMILES) | log K Gd(III) stability constant
1 | O=C(O)CN(CCN(CC(=O)O)CC(=O)O)CCN(CC(=O)O)C(COCc1ccccc1)C(=O)O (stereo not given) | 22.6
2 | O=C(O)CN(CCN(CC(=O)O)CC(=O)O)CCN(CC(=O)O)CC(=O)O [PENTETIC ACID] | 22.4
3 | CCN(CCN(CC(=O)O)CC(=O)O)CCN(CC(=O)O)CC(=O)O | 17.8

The remaining lines, values ahead:

Row | log K Gd(III) stability constant | Structure (SMILES)
4 | 18.9 | CCCOC(=O)CN(CCN(CCN(CC(=O)O)CC(=O)O)CC(=O)O)CC(=O)O
5 | 19.7 | CCCNC(=O)CN(CCN(CCN(CC(=O)O)CC(=O)O)CC(=O)O)CC(=O)O
